Assay results as given in patent publication US9012471B2, “Glucose metabolism modulating compounds” (The Trustees of Columbia University in the City of New York, priority 2008, dated 2015).
Each block holds one compound with its values, some of them ahead of it.

Experiments:
[1] = tested on: Lewis rats; assay: Intraperitoneal glucose tolerance test (IPGTT), blood glucose; format: in vivo, rat; details: for hypoglycemic activity in IPGTT (improvement of glucose tolerance): 2 mg/kg i.v., Lewis rats; for decrease of AUC IPGTT: 2 mg/kg i.v. 30 minutes before glucose 2 g/kg I.P.
Procedure: Rats were handled daily to minimize nonspecific stress for more than 7 days before the experiments began. In most experiments, it was necessary to measure blood glucose in fasting animals. For these groups, food was removed at the beginning of the light cycle, 6 hours before glucose levels were tested.
Sixty minutes prior to intraperitoneal glucose tolerance testing (IPGTT), anesthesia of male Lewis rats was induced with isoflurane (3-4% in oxygen) and maintained with 1-2% isoflurane in oxygen.
Anaesthetized rats were administered TBZ at the indicated dose by intravenous (i.v.) injection using the penile vein. […] Control rats received injections of vehicle alone (10% DMSO in Saline).
(§1) Animals were fully recovered for at least 30 minutes before receiving IPGTT. In specified experiments, L-DOPA was injected interperitoneal (I.P.) at the specified dose at the initiation of IPGTT. Abnormal glucose tolerance was induced by a single I.P. injection of streptozotocin (STZ) (Sigma Aldrich, St. Louis, Mo.) (50 mg/kg) to animals that had been fasted 4 hours to enhance the efficacy of STZ.
(§2) Blood samples were collected between 12:00 noon and 2:00 p.m. from a superficial blood vessel in the tails of the rats following 6 hours of fasting. The fasting blood glucose (BG) levels of the rats were measured using an Accu-Check blood glucose monitoring system (Roche Diagnostics, Sommerville, N.J.). IPGTT was performed in 6-hour fasting anaesthetized animals as previously described (Weksler-Zangen, et al. 2001). Briefly, after baseline BG measurements, animals received an I.P. injection of 2 grams of glucose/kg body weight. To minimize stress during the procedure, rats were handled by the same operator during acclimatization and later during weighing and IPGTT. Blood samples (50 μl or 150 μl) were collected at baseline and then again 15, 30, 60, 90, and 120 minutes following I.P. injection of glucose. Blood glucose concentrations were measured immediately on these samples and the remainder processed. Plasma was immediately separated by centrifugation at 3,000×g for 15 minutes and then stored at −80° C. until analysis.
(§3) Insulin and glucagon concentration measurements in rat plasma were performed by ELISA as per the manufacturer's instructions using kits from Linco Research Inc. (St. Charles, Mich.) and Alpco Diagnostics (Salem, N.H.), respectively. To validate the test, saline injections were performed by the same method. […] The area under the insulin, glucagon and IPGTT glucose concentration×time curve (AUC IPGTT) was calculated by the trapezoidal rule.

[2] = biological target: T1, DPP-IV (Homo sapiens, UniProt P27487); assay: DPP profiling service (BPS Bioscience), in vitro; format: biochemical; details: concentrations up to 10 μM
T1 construct: purchased BPS Bioscience, Inc. (San Diego, Calif.)
Procedure: The effect of DTBZ on DDP-IV was determined using the DPP profiling service from BPS Bioscience, Inc. (San Diego, Calif.).

[3] = biological target: T2, VMAT2 (Rattus norvegicus, UniProt Q01827); assay: PET displacement of [11C]DTBZ in pancreas; format: in vivo; details: cold compound 2 mg/kg, 30 minutes after radioligand
T2 construct: endogenous in cells; host or cells: rat INS 832/13 insulinoma cells
Procedure: PET scans were performed on 12-14-week-old Lewis male rats. Prior to imaging, the animals were anesthetized by isoflurane inhalation. After a transmission scan of the area of interest had been acquired (used to perform attenuation correction of the emission data), the radioligand [^11C]DTBZ was administered (0.5-1.0 μCi/gm) in saline as a bolus injection via the penile vein. PET scans of the animals were acquired dynamically to 90 minutes post-injection on a Concorde microPET-R4 (CTI Molecular Imaging (Knoxville, Tenn.)). The scanner provided a 100×80 mm field of view with a reconstructed resolution of 2.25 mm in the central 40 mm of the field of view.
At thirty minutes post injection of [^11C]DTBZ, animals received a second injection via the penile vein of cold analog. PET data were processed using an attenuation correction matrix obtained by transmission scans and images were reconstructed using Fourier rebinning, followed by two-dimensional, filtered back projection using microPET manager software (CTI Molecular Imaging (Knoxville, Tenn.)).
To test whether the strong hypoglycemic effect of compound 8 is conferred by binding to VMAT2 in beta cells, a PET study in rats was performed. The animals were treated with radiolabeled DTBZ, and the uptake of [^11C]DTBZ in pancreas was monitored by PET scan in the presence of an excess of compound 8.

[4] = biological target: T2, VMAT2; assay: Fake Fluorescent Neurotransmitter (FFN) uptake high throughput assay in INS 832/13 cells; format: cell-based; details: for block of FFN uptake/transport: one hour preincubation
Source text: A high throughput (HTP) assay was developed to screen for compounds that interact with, e.g., bind to, VMAT2. The HTP exploits a class of compounds called Fake Fluorescent Neurotransmitters (FFN) that share the following characteristics a) low molecular weight and sufficiently hydrophilic to be water soluble; b) in aqueous buffer (pH 7), the excitation maxima is around 380-406 nm and the emission maxima is around 501 nm; and c) similar Kd for VMAT2 as dopamine. To validate the use of these compounds in beta cell lines (positive for VMAT2) the following set of experiments were performed.
The rat INS 832/13 cell line was selected because it secretes insulin in response to glucose concentrations in the physiological range and can be shown to contain VMAT2 by PCR. […] INS cells were grown on cover slips in normal media, then pretreated with and without DTBZ in low glucose media for one hour and then loaded with FFN (GH206). The distribution of fluorescent dye was then examined under a fluorescent microscope. The FFN distributes itself intracellularly in a punctate pattern similar, if not identical, to insulin containing granules of this cell line (data not shown). […] For better quantitation of the fluorescent signal, the cells were grown in […] and the same experiment substantially repeated. Briefly, cells were grown to confluence in complete high glucose media, then incubated for one hour in low glucose media. DTBZ was then added to the wells for one hour, followed with a second one hour incubation with FFN. Wells were then washed and the fluorescent signal (380 exc, 512 emm) measured in a multiwell fluorometer (Synergy HT Multi-Mode Microplate Reader).

[5] = tested on: purified rat islets; assay: Static glucose stimulated insulin secretion in purified islets; format: cell-based; details: 100 nM DTBZ
Procedure: Rat pancreas digestion, islet isolations, and static insulin secretion assays were performed as previously described (Niswender et al. 2005; Sweet, et al. 2004; Sweet and Gilbert 2006). Purified islets were cultured in RPMI 1640 culture media with 10% fetal bovine serum at 37° C. in humidified air (5% CO2) for 18 to 24 hours. Assessment of insulin secretion in static media was carried out as follows. Islets were handpicked twice into a Petri dishes containing Krebs-Ringer bicarbonate (KRB) buffer (with 3 mM glucose and 0.1% BSA) and pre-incubated for 60 minutes (37° C. and 5% CO2). Subsequently, batches of 100 islets (in quadruplicate) were transferred into 96-well plates containing 200 μl of KRB with either 3 or 20 mM glucose, with or without 100 nM DTBZ and incubated for 60 minutes. The supernatant was removed and the insulin was measured using ELISA (ALPCO, Windham, N.H.).

[6] = tested on: Lewis rats; assay: Plasma insulin and glucagon during IPGTT; format: in vivo, rat
Procedure: as §2, with “The” for “Blood samples were collected between 12:00 noon and 2:00 p.m. from a superficial blood vessel in the tails of the rats following 6 hours of fasting. The”, “([…],” for “(Weksler-Zangen,”, “-80°” for “−80°”, “analysis. Insulin and glucagon concentration measurements in rat plasma were performed by ELISA as per the manufacturer's instructions using kits from Linco Research Inc. (St. Charles, Mich.) and Alpco Diagnostics (Salem, N.H.), respectively. To validate the test, saline injections were performed by the same method. […] The area under the insulin, glucagon and IPGTT glucose concentration×time curve (AUC IPGTT) was calculated by the trapezoidal rule.” for “analysis.”

[7] = tested on: Lewis rats; assay: Dopamine content of brain and pancreas tissue by ELISA after TBZ; format: in vivo, rat; details: 1.5 mg/Kg i.v., one hour after injection
Procedure: Euthanasia was performed by exsanguination of the anesthetized animal. Brain and pancreas were harvested as quickly as possible and frozen at −80° C. until use. […] The tissue extract was centrifuged at 10,000×g at 4° C. to remove debris and the total protein was estimated by reading the absorbance at 280 nm.

[8] = tested on: STZ treated rats; assay: IPGTT and insulin in streptozotocin (STZ) treated rats; format: in vivo, rat; details: TBZ 1.5 mg/Kg
Procedure: as §1
STZ solution was prepared fresh by dissolving it in 0.1 M citrate buffer (pH 5.5) and terminally sterile filtered. Control Lewis age and weight matched rats received a 0.5 ml/kg citrate vehicle alone via intraperitoneal injection. […]
Blood samples were collected between 12:00 noon and 2:00 p.m. from a superficial blood vessel in the tails of the rats following 6 hours of fasting. The fasting blood glucose (BG) levels of the rats were measured using an Accu-Check blood glucose monitoring system (Roche Diagnostics, Sommerville, N.J.). […] Blood glucose concentrations were measured immediately on these samples and the remainder processed. […]
as §3, with “respectively.” for “respectively. To validate the test, saline injections were performed by the same method.”

[9] = tested on: rats; details: cited from earlier work
[10] = rats; cited from earlier work
[11] = biological target: T3, VMAT1 (Homo sapiens, UniProt P54219); details: cited from earlier work
T3 sequence (P54219 1-525): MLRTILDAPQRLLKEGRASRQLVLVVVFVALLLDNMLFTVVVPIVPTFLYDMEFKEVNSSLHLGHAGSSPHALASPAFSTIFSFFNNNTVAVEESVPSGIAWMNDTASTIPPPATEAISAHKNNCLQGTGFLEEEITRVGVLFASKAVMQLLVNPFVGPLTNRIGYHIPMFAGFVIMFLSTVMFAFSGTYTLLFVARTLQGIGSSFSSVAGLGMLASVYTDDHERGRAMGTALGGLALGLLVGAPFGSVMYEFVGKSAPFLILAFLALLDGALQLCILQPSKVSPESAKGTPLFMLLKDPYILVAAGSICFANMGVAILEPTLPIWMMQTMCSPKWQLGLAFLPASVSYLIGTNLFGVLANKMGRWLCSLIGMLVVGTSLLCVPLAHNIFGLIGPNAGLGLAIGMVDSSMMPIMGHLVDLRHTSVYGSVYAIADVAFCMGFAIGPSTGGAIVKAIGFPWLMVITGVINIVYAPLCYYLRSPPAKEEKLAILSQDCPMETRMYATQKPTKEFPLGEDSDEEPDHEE

[12] = biological target: VMAT2 (Homo sapiens, UniProt Q05940); details: cited from earlier work
Sequence of VMAT2 (Homo sapiens, UniProt Q05940) (Q05940 whole entry): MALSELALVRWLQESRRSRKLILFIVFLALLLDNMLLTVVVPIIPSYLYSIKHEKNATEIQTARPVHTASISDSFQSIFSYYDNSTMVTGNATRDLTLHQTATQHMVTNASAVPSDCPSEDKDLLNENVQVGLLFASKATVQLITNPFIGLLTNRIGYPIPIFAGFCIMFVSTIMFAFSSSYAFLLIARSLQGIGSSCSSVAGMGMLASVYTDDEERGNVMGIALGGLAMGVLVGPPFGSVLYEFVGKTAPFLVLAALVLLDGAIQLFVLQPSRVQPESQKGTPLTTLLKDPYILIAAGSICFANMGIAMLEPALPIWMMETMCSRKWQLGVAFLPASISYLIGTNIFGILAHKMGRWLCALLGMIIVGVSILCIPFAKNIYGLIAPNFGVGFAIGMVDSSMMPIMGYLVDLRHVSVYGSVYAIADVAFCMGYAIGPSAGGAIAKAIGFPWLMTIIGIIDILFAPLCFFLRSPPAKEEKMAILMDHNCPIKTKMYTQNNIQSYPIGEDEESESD

T2 sequence (Q01827 whole entry): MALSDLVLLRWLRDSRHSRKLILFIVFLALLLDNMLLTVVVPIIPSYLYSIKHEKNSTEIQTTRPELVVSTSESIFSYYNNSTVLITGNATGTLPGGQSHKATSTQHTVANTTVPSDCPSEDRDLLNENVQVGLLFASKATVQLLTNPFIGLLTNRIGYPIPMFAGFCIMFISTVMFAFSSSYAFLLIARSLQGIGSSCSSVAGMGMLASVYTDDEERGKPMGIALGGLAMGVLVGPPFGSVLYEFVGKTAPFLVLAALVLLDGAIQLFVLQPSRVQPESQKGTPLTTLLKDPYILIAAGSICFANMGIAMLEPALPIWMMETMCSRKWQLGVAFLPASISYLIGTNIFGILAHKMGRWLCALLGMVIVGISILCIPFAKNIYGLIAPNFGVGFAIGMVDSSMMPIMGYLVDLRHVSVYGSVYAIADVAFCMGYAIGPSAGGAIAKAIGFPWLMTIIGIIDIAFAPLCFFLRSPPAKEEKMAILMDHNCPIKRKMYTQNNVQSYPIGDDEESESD
T1 sequence (P27487 whole entry, species assumed): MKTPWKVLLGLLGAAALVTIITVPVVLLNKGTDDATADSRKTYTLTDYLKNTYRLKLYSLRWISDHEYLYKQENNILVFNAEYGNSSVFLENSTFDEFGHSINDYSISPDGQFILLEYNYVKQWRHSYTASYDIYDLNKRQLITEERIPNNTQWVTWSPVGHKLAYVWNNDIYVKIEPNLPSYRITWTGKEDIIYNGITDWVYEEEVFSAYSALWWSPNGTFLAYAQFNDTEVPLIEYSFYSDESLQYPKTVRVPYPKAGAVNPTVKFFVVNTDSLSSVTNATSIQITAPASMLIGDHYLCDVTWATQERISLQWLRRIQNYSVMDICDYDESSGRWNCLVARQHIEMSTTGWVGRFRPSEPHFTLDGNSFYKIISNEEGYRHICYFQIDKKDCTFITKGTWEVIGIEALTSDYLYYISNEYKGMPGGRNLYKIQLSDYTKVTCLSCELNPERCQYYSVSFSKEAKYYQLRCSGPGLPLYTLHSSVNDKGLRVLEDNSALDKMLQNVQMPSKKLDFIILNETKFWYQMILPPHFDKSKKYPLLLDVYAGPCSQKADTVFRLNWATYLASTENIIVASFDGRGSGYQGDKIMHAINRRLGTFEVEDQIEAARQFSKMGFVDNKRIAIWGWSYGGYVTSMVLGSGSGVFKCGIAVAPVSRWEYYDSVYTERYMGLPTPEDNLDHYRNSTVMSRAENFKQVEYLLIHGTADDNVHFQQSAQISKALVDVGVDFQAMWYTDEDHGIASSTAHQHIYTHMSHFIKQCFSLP

Structure (SMILES): COC1=CC(=O)N2CCc3cc(OC)c(OC)cc3C2C1 (stereo not drawn) [compound 15]
hypoglycemic activity in IPGTT (improvement of glucose tolerance) [1]: active but less potent

effect on DPP-IV [2]: negative | binding to VMAT2, displacement of [11C]DTBZ in the endocrine pancreas, relative to DTBZ [3]: at least a weak binding | activity on a per mole basis in blocking FFN transport [4]: less than that of DTBZ
Structure (SMILES): COc1ccc(C2CC(OCC(C)C)=CC(=O)N2)cc1OC (stereo not drawn) [compound 8]
decrease of AUC IPGTT [1]: 45% | hypoglycemic activity in IPGTT (improvement of glucose tolerance) [1]: potent hypoglycemic effect | block of FFN uptake/transport [4]: able to block FFN transport into INS vesicles

Structure (SMILES): COc1cc2c(cc1OC)[C@H]1C[C@@H](O)[C@H](CC(C)C)CN1CC2 [DTBZ, dihydrotetrabenazine]
enhancement of glucose stimulated insulin secretion ([5]; high glucose (20 mM), 60 minutes): two to three fold | increase in insulin secretion ([5]; low glucose (3 mM)): not statistically significant | effect on DPP-IV [2]: no effect | block of FFN uptake/transport [4]: able to block uptake of FFN

Structure (SMILES): COc1ccc(C2CC(O)C(CC(C)C)CN2)cc1OC (racemic) [compound 1]
hypoglycemic activity in IPGTT (improvement of glucose tolerance) [1]: less potent than TBZ

Structure (SMILES): N[C@@H](Cc1ccc(O)c(O)c1)C(=O)O [L-DOPA, L-3,4-dihydroxyphenylalanine]
effect on TBZ-lowered AUC IPGTT ([1]; L-DOPA 6.0 mg/Kg I.P., one hour after TBZ, concurrent with glucose): reverse the effects of TBZ

Structure (SMILES): NCCc1ccc(O)c(O)c1 [dopamine]
effect on insulin enhancement by TBZ ([6]; dopamine i.v. at the same time as glucose): partially blocked the insulin enhancing effects of TBZ

Structure (SMILES): COc1cc2c(cc1OC)C1CC(=O)C(CC(C)C)CN1CC2 (stereo not drawn) [TBZ, tetrabenazine]
reduction of glucose excursion (AUC IPGTT) ([1]; 2.25 μg/gm body weight i.v., older male Lewis rats >11 weeks): approximately 35% | decrease of AUC IPGTT [1]: 26% | baseline fasting glucose concentration versus control animals ([1]; about 1 hour after TBZ, before glucose challenge): no reproducible differences | AUC IPGTT ([1]; chronic administration, approximately 0.1 mg/Kg body weight for five days): suppressed the AUC IPGTT in a fashion similar to the single high dose | AUC IPGTT ([1]; doses higher than 5.0 mg/Kg): increasingly variable, often surpassing that of control levels | glucose tolerance enhancing effect (AUC IPGTT) ([1]; doses lower than 0.3 mg/Kg): undetectable | dopamine content of brain [7]: significantly reduced | AUC plasma glucagon ([6]; i.v. TBZ and glucose challenge): lower relative to controls | AUC IPGTT ([8]; STZ treated rats): decreased | increase of AUC insulin ([8]; STZ treated rats which maintained glucose dependant insulin secretion): 50%-80% | reduction of dopamine levels in the brain [9]: 40% | reduction of norepinephrine levels in the brain [9]: 41% | reduction of serotonin levels in the brain [9]: 44% | plasma elimination half life, t1/2 [10]: 2 h | reduced affinity towards VMAT1 versus VMAT2 [11]: more than 10,000 fold | dissociation constant [12]: nanomolar range
